Assay results reported in PMC4620497 (Scientific Reports, 2015).
pIC50, pKd: −log10 of the molar value.

Tests used:
DMPK = molecular target: T1, DMPK (Homo sapiens, UniProt Q09013); parameters: method as in earlier work; conditions: Table S1; cited from earlier work
T1 construct: purchased DiscoveRx KINOMEscan (Ambit Biosciences)
T1 sequence (Q09013 1-629): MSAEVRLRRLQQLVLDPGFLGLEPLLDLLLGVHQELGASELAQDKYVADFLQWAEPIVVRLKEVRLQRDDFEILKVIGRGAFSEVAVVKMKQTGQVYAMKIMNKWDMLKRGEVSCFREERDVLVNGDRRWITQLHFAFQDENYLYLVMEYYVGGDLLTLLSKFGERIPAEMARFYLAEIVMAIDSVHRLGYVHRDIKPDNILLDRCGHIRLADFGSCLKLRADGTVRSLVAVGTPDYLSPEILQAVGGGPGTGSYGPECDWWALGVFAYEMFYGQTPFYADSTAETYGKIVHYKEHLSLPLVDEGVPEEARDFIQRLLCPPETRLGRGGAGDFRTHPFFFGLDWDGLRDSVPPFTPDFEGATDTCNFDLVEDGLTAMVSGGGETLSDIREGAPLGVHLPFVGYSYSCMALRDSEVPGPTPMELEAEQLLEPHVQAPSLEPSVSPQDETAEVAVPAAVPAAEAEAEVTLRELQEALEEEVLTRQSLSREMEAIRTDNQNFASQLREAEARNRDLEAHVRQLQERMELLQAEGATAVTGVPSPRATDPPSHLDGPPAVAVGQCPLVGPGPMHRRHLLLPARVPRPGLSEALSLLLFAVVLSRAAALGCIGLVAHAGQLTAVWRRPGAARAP

LATS2 = molecular target: T2, LATS2 (Homo sapiens, UniProt Q9NRM7); experiment: KINOMEscan panel screen; type: binding; conditions: read-out: Percent Control(%)
T2 construct: purchased DiscoveRx KINOMEscan (Ambit Biosciences)

MLK3 = molecular target: T3, MLK3 (Homo sapiens, UniProt Q16584); experiment: KINOMEscan panel screen; type: binding; conditions: read-out: Percent Control(%)
T3 construct: purchased DiscoveRx KINOMEscan (Ambit Biosciences)

FLT3-D835H [1] = molecular target: T4, FLT3-D835H (Homo sapiens, UniProt P36888, D835H); experiment: KINOMEscan panel screen; type: binding; parameters: purchased DiscoveRx KINOMEscan (Ambit Biosciences); conditions: read-out: Percent Control(%)
TTK = molecular target: T5, TTK (Homo sapiens, UniProt P33981); experiment: KINOMEscan panel screen; type: binding; conditions: read-out: Percent Control(%)
T5 construct: purchased DiscoveRx KINOMEscan (Ambit Biosciences)

CAMK1G = molecular target: T6, CAMK1G (Homo sapiens, UniProt Q96NX5); experiment: KINOMEscan panel screen; type: binding; conditions: read-out: Percent Control(%)
T6 construct: purchased DiscoveRx KINOMEscan (Ambit Biosciences)

FLT3-D835H [2] = molecular target: T4, FLT3-D835H; experiment: KINOMEscan kinase binding assay (Kd); parameters: purchased Ambit Biosciences (KINOMEscan)
PRKCI = molecular target: T7, PRKCI (Homo sapiens, UniProt P41743); experiment: KINOMEscan panel screen; type: binding; conditions: read-out: Percent Control(%)
T7 construct: purchased DiscoveRx KINOMEscan (Ambit Biosciences)

EGFR(L858R,T790M) = molecular target: T8, EGFR(L858R,T790M) (Homo sapiens, UniProt P00533, L858R/T790M); experiment: KINOMEscan panel screen; type: binding; conditions: read-out: Percent Control(%)
T8 construct: purchased DiscoveRx KINOMEscan (Ambit Biosciences)
T8 sequence (P00533 25-1210 T790M/L858R): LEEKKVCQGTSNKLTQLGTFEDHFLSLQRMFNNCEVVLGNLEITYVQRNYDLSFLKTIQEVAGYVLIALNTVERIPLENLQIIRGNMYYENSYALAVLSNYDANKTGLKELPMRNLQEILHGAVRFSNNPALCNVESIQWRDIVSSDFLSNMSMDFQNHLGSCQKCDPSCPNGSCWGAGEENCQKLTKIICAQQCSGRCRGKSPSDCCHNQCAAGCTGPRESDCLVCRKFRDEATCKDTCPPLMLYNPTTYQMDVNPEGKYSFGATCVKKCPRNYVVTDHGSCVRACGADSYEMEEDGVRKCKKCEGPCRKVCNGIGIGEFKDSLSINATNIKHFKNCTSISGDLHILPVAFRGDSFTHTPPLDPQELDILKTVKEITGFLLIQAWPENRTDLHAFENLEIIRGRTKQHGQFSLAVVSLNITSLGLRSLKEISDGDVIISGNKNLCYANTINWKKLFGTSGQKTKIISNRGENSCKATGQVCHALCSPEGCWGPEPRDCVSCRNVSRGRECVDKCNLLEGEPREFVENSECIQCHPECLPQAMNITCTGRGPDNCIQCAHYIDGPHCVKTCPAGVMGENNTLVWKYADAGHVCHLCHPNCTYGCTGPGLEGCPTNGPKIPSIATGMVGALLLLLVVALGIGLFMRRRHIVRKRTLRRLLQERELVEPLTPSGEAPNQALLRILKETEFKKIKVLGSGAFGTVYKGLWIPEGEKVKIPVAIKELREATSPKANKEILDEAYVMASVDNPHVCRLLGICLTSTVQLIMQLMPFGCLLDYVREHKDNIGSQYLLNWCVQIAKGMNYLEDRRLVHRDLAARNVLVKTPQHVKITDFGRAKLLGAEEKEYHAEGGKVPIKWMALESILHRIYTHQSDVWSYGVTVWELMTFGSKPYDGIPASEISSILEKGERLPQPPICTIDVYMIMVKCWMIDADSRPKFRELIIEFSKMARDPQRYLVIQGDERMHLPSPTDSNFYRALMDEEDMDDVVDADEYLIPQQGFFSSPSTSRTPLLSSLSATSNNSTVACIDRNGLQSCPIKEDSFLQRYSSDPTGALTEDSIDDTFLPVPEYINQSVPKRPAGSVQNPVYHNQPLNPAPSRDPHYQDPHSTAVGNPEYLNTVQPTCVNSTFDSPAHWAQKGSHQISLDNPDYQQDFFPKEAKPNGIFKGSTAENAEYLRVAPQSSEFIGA

NEK7 = molecular target: T9, NEK7 (Homo sapiens, UniProt Q8TDX7); experiment: KINOMEscan panel screen; type: binding; conditions: read-out: Percent Control(%)
T9 construct: purchased DiscoveRx KINOMEscan (Ambit Biosciences)

SW620 = experiment: MTT cell viability assay; conditions: Homo sapiens, SW-620, 72 h
MKNK2 = molecular target: T10, MKNK2 (Homo sapiens, UniProt Q9HBH9); experiment: KINOMEscan panel screen; type: binding; conditions: read-out: Percent Control(%)
T10 construct: purchased DiscoveRx KINOMEscan (Ambit Biosciences)

[3] = molecular target: T11, RSK4(Kin.Dom.2-C-terminal) (Homo sapiens, UniProt Q9UK32); experiment: KINOMEscan panel screen; type: binding; conditions: read-out: Percent Control(%)
T11 construct: RSK4(Kin.Dom.2-C-terminal); purchased DiscoveRx KINOMEscan (Ambit Biosciences)

PIK3CA(I800L) = molecular target: T12, PIK3CA(I800L) (Homo sapiens, UniProt P42336, I800L); experiment: KINOMEscan panel screen; type: binding; conditions: read-out: Percent Control(%)
T12 construct: purchased DiscoveRx KINOMEscan (Ambit Biosciences)
T12 sequence (P42336 whole entry I800L): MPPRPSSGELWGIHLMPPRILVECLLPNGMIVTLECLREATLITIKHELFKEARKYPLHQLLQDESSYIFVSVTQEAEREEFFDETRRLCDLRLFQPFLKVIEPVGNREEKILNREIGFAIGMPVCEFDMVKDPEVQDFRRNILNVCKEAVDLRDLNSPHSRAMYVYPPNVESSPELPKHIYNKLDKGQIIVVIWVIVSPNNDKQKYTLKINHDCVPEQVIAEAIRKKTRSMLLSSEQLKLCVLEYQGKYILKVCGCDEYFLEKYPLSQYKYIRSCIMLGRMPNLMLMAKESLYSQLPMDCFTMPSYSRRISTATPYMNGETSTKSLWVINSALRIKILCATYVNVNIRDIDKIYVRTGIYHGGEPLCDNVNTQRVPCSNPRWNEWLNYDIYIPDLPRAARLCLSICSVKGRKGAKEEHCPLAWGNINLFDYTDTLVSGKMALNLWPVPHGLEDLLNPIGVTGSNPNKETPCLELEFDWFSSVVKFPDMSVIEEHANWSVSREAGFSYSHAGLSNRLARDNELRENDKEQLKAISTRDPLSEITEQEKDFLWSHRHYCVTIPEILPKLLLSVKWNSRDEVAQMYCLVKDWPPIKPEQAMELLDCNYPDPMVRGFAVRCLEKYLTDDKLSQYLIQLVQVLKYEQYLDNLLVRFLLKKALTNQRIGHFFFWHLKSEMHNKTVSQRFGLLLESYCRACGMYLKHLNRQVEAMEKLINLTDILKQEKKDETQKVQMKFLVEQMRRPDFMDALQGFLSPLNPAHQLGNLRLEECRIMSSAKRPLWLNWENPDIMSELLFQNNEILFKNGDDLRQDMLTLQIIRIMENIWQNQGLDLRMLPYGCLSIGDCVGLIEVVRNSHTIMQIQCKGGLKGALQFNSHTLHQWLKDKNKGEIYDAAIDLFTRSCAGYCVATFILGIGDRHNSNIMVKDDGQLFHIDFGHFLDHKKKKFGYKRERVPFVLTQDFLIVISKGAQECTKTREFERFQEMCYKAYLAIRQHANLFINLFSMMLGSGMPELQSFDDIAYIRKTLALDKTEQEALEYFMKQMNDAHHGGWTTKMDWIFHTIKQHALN

MST2 = molecular target: T13, MST2 (Homo sapiens, UniProt Q13188); experiment: KINOMEscan panel screen; type: binding; conditions: read-out: Percent Control(%)
T13 construct: purchased DiscoveRx KINOMEscan (Ambit Biosciences)

TBK1 = molecular target: T14, TBK1 (Homo sapiens, UniProt Q9UHD2); experiment: KINOMEscan panel screen; type: binding; conditions: read-out: Percent Control(%)
T14 construct: purchased DiscoveRx KINOMEscan (Ambit Biosciences)
T14 sequence (Q9UHD2 whole entry): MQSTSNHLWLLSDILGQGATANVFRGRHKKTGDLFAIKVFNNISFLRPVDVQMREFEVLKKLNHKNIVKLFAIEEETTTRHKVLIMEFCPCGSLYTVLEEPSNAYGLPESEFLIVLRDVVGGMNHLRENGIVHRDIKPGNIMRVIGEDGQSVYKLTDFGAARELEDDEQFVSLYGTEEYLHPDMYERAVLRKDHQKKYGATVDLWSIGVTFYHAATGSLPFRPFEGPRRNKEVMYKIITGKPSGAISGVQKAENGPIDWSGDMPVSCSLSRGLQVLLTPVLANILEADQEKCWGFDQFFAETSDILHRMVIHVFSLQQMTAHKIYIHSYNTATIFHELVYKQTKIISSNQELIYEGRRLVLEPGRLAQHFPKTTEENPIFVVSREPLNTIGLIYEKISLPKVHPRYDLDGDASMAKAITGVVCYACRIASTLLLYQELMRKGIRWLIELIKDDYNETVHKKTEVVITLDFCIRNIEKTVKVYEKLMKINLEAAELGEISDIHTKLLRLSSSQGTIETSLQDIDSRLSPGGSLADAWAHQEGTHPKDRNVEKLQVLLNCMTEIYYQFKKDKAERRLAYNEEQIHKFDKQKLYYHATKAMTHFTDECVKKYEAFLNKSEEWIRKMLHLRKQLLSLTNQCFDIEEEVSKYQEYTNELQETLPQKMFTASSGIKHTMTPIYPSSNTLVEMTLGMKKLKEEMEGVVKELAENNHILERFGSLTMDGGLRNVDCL

RET(M918T) = molecular target: T15, RET(M918T) (Homo sapiens, UniProt P07949, M918T); experiment: KINOMEscan panel screen; type: binding; conditions: read-out: Percent Control(%)
T15 construct: purchased DiscoveRx KINOMEscan (Ambit Biosciences)

ERBB2 = ERBB2 (Homo sapiens, UniProt P04626); experiment: KINOMEscan panel screen; type: binding; conditions: read-out: Percent Control(%)
HASPIN = molecular target: T16, HASPIN (Homo sapiens, UniProt Q8TF76); experiment: KINOMEscan panel screen; type: binding; conditions: read-out: Percent Control(%)
T16 construct: purchased DiscoveRx KINOMEscan (Ambit Biosciences)

AURKB = molecular target: T17, AURKB (Homo sapiens, UniProt Q96GD4); experiment: KINOMEscan panel screen; type: binding; conditions: read-out: Percent Control(%)
T17 construct: purchased DiscoveRx KINOMEscan (Ambit Biosciences)

PIK3CA(H1047L) = molecular target: T18, PIK3CA(H1047L) (Homo sapiens, UniProt P42336, H1047L); experiment: KINOMEscan panel screen; type: binding; conditions: read-out: Percent Control(%)
T18 construct: purchased DiscoveRx KINOMEscan (Ambit Biosciences)
T18 sequence (P42336 whole entry H1047L): as the sequence (P42336 whole entry I800L) above, with L800I, H1047L counted along it

YANK1 = molecular target: T19, YANK1 (Homo sapiens, UniProt Q8WU08); experiment: KINOMEscan panel screen; type: binding; conditions: read-out: Percent Control(%)
T19 construct: purchased DiscoveRx KINOMEscan (Ambit Biosciences)

MET = molecular target: T20, MET (Homo sapiens, UniProt P08581); experiment: KINOMEscan kinase binding assay (Kd)
T20 construct: purchased DiscoveRx KINOMEscan (Ambit Biosciences)

PIP5K2C = molecular target: T21, PIP5K2C (Homo sapiens, UniProt Q8TBX8); experiment: KINOMEscan panel screen; type: binding; conditions: read-out: Percent Control(%)
T21 construct: purchased DiscoveRx KINOMEscan (Ambit Biosciences)

[4] = molecular target: T22, RPS6KA4(Kin.Dom.1-N-terminal) (Homo sapiens, UniProt O75676); experiment: KINOMEscan panel screen; type: binding; conditions: read-out: Percent Control(%)
T22 construct: RPS6KA4(Kin.Dom.1-N-terminal); purchased DiscoveRx KINOMEscan (Ambit Biosciences)
T22 sequence (O75676 33-301 limits assumed): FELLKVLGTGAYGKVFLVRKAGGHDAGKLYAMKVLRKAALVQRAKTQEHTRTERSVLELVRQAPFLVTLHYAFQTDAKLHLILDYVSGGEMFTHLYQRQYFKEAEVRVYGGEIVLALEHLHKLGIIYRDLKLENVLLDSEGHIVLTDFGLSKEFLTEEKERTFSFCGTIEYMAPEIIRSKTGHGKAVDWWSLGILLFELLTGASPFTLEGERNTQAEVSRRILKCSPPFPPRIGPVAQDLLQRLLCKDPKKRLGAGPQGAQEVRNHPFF

EPHA3 = molecular target: T23, EPHA3 (Homo sapiens, UniProt P29320); experiment: KINOMEscan panel screen; type: binding; conditions: read-out: Percent Control(%)
T23 construct: purchased DiscoveRx KINOMEscan (Ambit Biosciences)

BRK = molecular target: T24, BRK (Homo sapiens, UniProt Q13882); experiment: KINOMEscan panel screen; type: binding; conditions: read-out: Percent Control(%)
T24 construct: purchased DiscoveRx KINOMEscan (Ambit Biosciences)

DAPK1 = molecular target: T25, DAPK1 (Homo sapiens, UniProt P53355); experiment: KINOMEscan panel screen; type: binding; conditions: read-out: Percent Control(%)
T25 construct: purchased DiscoveRx KINOMEscan (Ambit Biosciences)
T25 sequence (P53355 whole entry): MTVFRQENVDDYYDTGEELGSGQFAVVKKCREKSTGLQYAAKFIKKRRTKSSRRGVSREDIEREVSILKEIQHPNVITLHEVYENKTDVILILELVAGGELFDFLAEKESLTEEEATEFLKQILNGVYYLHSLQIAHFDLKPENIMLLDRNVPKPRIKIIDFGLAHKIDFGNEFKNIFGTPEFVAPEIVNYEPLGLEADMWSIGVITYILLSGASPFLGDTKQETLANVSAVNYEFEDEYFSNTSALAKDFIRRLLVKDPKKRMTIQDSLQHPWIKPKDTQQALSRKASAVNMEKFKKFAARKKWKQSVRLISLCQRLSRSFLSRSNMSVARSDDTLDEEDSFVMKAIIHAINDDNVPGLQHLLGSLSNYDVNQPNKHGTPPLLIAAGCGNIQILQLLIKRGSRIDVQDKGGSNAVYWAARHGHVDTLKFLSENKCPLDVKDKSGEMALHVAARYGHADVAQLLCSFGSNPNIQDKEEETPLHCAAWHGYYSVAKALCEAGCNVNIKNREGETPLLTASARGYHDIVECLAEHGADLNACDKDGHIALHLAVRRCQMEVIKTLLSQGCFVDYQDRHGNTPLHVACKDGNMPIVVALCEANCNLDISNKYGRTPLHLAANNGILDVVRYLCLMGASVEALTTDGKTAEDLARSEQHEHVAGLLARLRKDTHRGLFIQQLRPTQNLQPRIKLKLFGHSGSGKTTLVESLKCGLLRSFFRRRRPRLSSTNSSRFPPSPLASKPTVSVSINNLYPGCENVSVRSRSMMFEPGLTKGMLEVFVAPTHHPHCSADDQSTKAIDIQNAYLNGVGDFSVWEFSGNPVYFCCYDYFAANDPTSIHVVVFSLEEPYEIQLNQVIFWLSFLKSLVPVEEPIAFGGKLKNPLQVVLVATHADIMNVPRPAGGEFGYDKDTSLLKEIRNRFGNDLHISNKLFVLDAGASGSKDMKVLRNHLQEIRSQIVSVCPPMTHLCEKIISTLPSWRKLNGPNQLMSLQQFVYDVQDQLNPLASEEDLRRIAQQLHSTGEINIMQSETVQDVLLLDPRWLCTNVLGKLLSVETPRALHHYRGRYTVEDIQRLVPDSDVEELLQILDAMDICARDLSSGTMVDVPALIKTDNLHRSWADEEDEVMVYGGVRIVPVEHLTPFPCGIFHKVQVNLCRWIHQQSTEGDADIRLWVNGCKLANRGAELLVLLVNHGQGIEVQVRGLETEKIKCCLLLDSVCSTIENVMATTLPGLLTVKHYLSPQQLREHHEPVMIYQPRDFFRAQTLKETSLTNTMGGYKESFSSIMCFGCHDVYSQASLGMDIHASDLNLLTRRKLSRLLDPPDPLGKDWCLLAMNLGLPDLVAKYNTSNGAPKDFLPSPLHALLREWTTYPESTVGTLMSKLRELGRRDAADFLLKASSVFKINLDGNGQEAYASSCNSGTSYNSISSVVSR

ADCK3 = molecular target: T26, ADCK3 (Homo sapiens, UniProt Q8NI60); experiment: KINOMEscan panel screen; type: binding; conditions: read-out: Percent Control(%)
T26 construct: purchased DiscoveRx KINOMEscan (Ambit Biosciences)

EGFR(S752-I759del) = molecular target: T27, EGFR(S752-I759del) (Homo sapiens, UniProt P00533, DEL752-759); experiment: KINOMEscan panel screen; type: binding; conditions: read-out: Percent Control(%)
T27 construct: purchased DiscoveRx KINOMEscan (Ambit Biosciences)
T27 sequence (P00533 with tags, fused parts or gaps DEL752-759 limits assumed): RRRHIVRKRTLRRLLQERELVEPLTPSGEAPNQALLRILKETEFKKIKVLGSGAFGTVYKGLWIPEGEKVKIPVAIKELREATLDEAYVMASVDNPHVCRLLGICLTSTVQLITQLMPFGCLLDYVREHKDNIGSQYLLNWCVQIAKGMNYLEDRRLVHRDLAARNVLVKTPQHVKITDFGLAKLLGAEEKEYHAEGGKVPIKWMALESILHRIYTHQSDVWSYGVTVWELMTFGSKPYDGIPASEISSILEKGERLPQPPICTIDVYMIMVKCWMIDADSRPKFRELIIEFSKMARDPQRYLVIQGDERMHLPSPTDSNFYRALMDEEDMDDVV

[5] = tested on: active β-catenin, NKD1, AXIN2 in MV4-11 tumors; experiment: Wnt/β-catenin signaling in MV4-11 xenograft tumors (western blot, qPCR); type: in vivo, NOD-SCID mice; conditions: single oral dose 10 mg/kg
Procedure: Western blot assays and real-time qPCR assays were conducted on the harvested tumors.
Whole protein lysates of tumor samples were collected by the abrading of tumors in liquid nitrogen. […] Quantitative analysis of the protein level was performed with NIH image analysis software, ImageJ (normalized relative to the vehicle control).
Total RNA of cell samples and tumor samples was extracted using RNAsimple total RNA kit (TIANGEN) according to the manufacturer’s instructions. cDNA was generated using the iScript^TMcDNA Synthesis Kit (Bio-Rad), and the RT-PCR reactions were performed using SsoAdvanced SYBR Green Supermix (Bio-Rad). The reaction consisted of 40 cycles of denaturation at 95 °C for 5 s and annealing/extension for 30s at 60 °C.
The mice were assigned to 5 groups (n = 6 in each group). […] The mean values ± SD are shown. […] Representative images were shown.

O=C(Nc1ccc(Oc2ncnc3[nH]ncc23)cc1)Nc1ccc(Cl)c(C(F)(F)F)c1 [Compound 1, 1-(4-(1H-pyrazolo[3,4-d]pyrimidin-4-yloxy)phenyl)-3-(4-chloro-3-(trifluoromethyl)phenyl)urea]
pIC50 (DMPK): < 5.00

CC(C)(C)c1cc(NC(=O)Nc2ccc(Oc3ncnc4[nH]ncc34)c(F)c2)no1 [SKLB-677, 1-(4-(1H-pyrazolo[3,4-d]pyrimidin-4-yloxy)-3-fluorophenyl)-3-(5-tert-butylisoxazol-3-yl)urea]
remaining binding at 10 µM (LATS2): 26% | remaining binding at 10 µM (MLK3): 24% | remaining binding at 10 µM (FLT3-D835H [1]): 0% | remaining binding at 10 µM (TTK): 17% | remaining binding at 10 µM (CAMK1G): 48% | pKd (FLT3-D835H [2]): 9.13 | remaining binding at 10 µM (PRKCI): 79% | remaining binding at 10 µM (EGFR(L858R,T790M)): 75% | remaining binding at 10 µM (NEK7): 48% | pIC50 (SW620): < 5.00 | remaining binding at 10 µM (MKNK2): 1% | remaining binding at 10 µM [3]: 72% | remaining binding at 10 µM (PIK3CA(I800L)): 87% | remaining binding at 10 µM (MST2): 87% | remaining binding at 10 µM (TBK1): 70% | remaining binding at 10 µM (RET(M918T)): 0% | remaining binding at 10 µM (ERBB2): 100% | remaining binding at 10 µM (HASPIN): 42% | remaining binding at 10 µM (AURKB): 2.6% | remaining binding at 10 µM (PIK3CA(H1047L)): 84% | remaining binding at 10 µM (YANK1): 88% | pKd (MET): 6.66 | remaining binding at 10 µM (PIP5K2C): 100% | remaining binding at 10 µM [4]: 29% | remaining binding at 10 µM (EPHA3): 24% | remaining binding at 10 µM (BRK): 23% | remaining binding at 10 µM (DAPK1): 74% | remaining binding at 10 µM (ADCK3): 100% | remaining binding at 10 µM (EGFR(S752-I759del)): 38% | mRNA level of NKD1 and AXIN2 in tumors [5]: down-regulated | protein levels of active β-catenin and NKD1 in tumors [5]: induced the reduction
